{"source": "patent US8252723B2", "about": "“Substituted 1-(3-pyridinyl)pyrazol-4-ylacetic acids, processes for their preparation and their use as herbicides and plant growth regulators” (Bayer CropScience AG, priority 2006, dated 2012)"}
{"test_system": "summer wheat of the cultivar 'Triso'", "assay": "Plant growth regulation test: culm stabilization of crop plants", "format": "in vivo", "settings": "application rate of 30 to 300 g of active substance per hectare, treated at stage BBCH 31, culm length measured after ears had formed", "procedure": "With stirring, the compound of the formula (I) in question was, in the form of a water-dispersible powder, together with a surfactant (customary adjuvant at an application rate of 1 l/ha), mixed with water such that a homogenous spray liquor was formed, and applied at an application rate of 300 l of water/ha (converted).\nSeeds of summer wheat of the cultivar ‘Triso’ were sown at a depth of 1 cm in plant pots and cultivated outdoors until treatment.\nThe plants were treated on a laboratory track sprayer with spray liquors of the test substances at macrostage 3 after having reached about 10% of the maximum longitudinal growth typical for the cultivar (stage BBCH 31) and, after the treatment, returned outdoors.\nAfter the ears had formed, the length of the culms were measured. The culm stabilization was evaluated as a percentage of the untreated control."}
{"smiles": "Cc1nn(-c2cccnc2)c(-c2ccc(Cl)cc2)c1CC(=O)OC1COC1", "note": "[Example 3-232]", "longitudinal growth (culm length) of summer wheat": "effectively shortened"}
{"smiles": "C#CCOC(=O)Cc1cnn(-c2cccnc2)c1-c1ccccc1", "note": "[Example 3-64]", "longitudinal growth (culm length) of summer wheat": "effectively shortened"}
{"smiles": "COC(=O)Cc1c(C)nn(-c2cnccc2C)c1-c1ccc(Cl)cc1Cl", "note": "[Example 2-23]", "longitudinal growth (culm length) of summer wheat": "effectively shortened"}
{"smiles": "C=C(C)COC(=O)Cc1c(C)nn(-c2cccnc2)c1-c1ccccc1", "note": "[Example 3-156]", "longitudinal growth (culm length) of summer wheat": "effectively shortened"}
{"smiles": "Cc1ccncc1-n1nc(C)c(CC(=O)O)c1-c1ccc(C(F)(F)F)cc1", "note": "[Example 1-24]", "longitudinal growth (culm length) of summer wheat": "effectively shortened"}
{"smiles": "COC(=O)Cc1c(C)nn(-c2cccnc2)c1-c1cccnc1", "note": "[Example 2-125]", "longitudinal growth (culm length) of summer wheat": "effectively shortened"}
{"smiles": "COC(=O)Cc1c(C)nn(-c2cnccc2C)c1-c1ccc(OC)cc1", "note": "[Example 2-13]", "longitudinal growth (culm length) of summer wheat": "effectively shortened"}
{"smiles": "Cc1ccnc(-c2c(CC(=O)O)c(C)nn2-c2cccnc2)c1", "note": "[Example 1-136]", "longitudinal growth (culm length) of summer wheat": "effectively shortened"}
{"smiles": "Cc1nn(-c2cccnc2)c(-c2ccc(Cl)c(Cl)c2)c1CC(=O)O", "note": "[Example 1-27]", "longitudinal growth (culm length) of summer wheat": "effectively shortened"}
{"smiles": "COC(=O)Cc1c(C)nn(-c2cccnc2)c1-c1ccc(Cl)cc1", "note": "[Example 2-26]", "longitudinal growth (culm length) of summer wheat": "effectively shortened"}
{"smiles": "Cc1ccncc1-n1nc(C)c(CC(=O)O)c1-c1ccccc1Cl", "note": "[Example 1-22]", "longitudinal growth (culm length) of summer wheat": "effectively shortened"}
{"smiles": "COc1ccncc1-n1nc(C)c(CC(=O)O)c1-c1ccc(Cl)cc1", "note": "[Example 1-35]", "longitudinal growth (culm length) of summer wheat": "effectively shortened"}
{"smiles": "COC(=O)Cc1c(C)nn(-c2cnccc2C)c1-c1cccc(Br)c1", "note": "[Example 2-40]", "longitudinal growth (culm length) of summer wheat": "effectively shortened"}
{"smiles": "CCCOC(=O)Cc1c(C)nn(-c2cccnc2)c1-c1ccccn1", "note": "[Example 3-34]", "longitudinal growth (culm length) of summer wheat": "effectively shortened"}
{"smiles": "COC(=O)Cc1c(C=O)nn(-c2cccnc2)c1-c1ccc(Cl)cc1", "note": "[Example 2-165]", "longitudinal growth (culm length) of summer wheat": "effectively shortened"}
{"smiles": "COC(=O)Cc1c(C)nn(-c2cnccc2SC)c1-c1ccccc1", "note": "[Example 2-44]", "longitudinal growth (culm length) of summer wheat": "effectively shortened"}
{"smiles": "Cc1ccncc1-n1nc(C)c(CC(=O)O)c1-c1ccsc1", "note": "[Example 1-56]", "longitudinal growth (culm length) of summer wheat": "effectively shortened"}
{"smiles": "Cc1ccnc(-c2c(CC(=O)O)c(C)nn2-c2cnccc2C)c1", "note": "[Example 1-137]", "longitudinal growth (culm length) of summer wheat": "effectively shortened"}
{"smiles": "Cc1nn(-c2cccnc2)c(-c2ccccc2)c1CC(=O)OCC1CC1", "note": "[Example 3-77]", "longitudinal growth (culm length) of summer wheat": "effectively shortened"}
{"smiles": "Cc1nn(-c2cccnc2)c(-c2ccccc2)c1CC(=O)OCC1CCCC1", "note": "[Example 3-172]", "longitudinal growth (culm length) of summer wheat": "effectively shortened"}
{"smiles": "Cc1ccncc1-n1nc(C)c(CC(=O)O)c1-c1sccc1C", "note": "[Example 1-53]", "longitudinal growth (culm length) of summer wheat": "effectively shortened"}
{"smiles": "C=C(Cl)COC(=O)Cc1c(C)nn(-c2cccnc2)c1-c1ccsc1", "note": "[Example 3-187]", "longitudinal growth (culm length) of summer wheat": "effectively shortened"}
{"smiles": "Cc1ccncc1-n1nc(C)c(CC(=O)O)c1-c1ccc(-c2ccccc2)cc1", "note": "[Example 1-41]", "longitudinal growth (culm length) of summer wheat": "effectively shortened"}
{"smiles": "Cc1nn(-c2cccnc2)c(-c2cccc(C(F)(F)F)c2)c1CC(=O)O", "note": "[Example 1-18]", "longitudinal growth (culm length) of summer wheat": "effectively shortened"}
{"smiles": "COC(=O)Cc1c(C)nn(-c2cnccc2C)c1-c1ccc(C(F)(F)F)cc1", "note": "[Example 2-24]", "longitudinal growth (culm length) of summer wheat": "effectively shortened"}
{"smiles": "Cc1ccncc1-n1nc(C)c(CC(=O)O)c1-c1ccc(Cl)cc1", "note": "[Example 1-25]", "longitudinal growth (culm length) of summer wheat": "effectively shortened"}
{"smiles": "O=C(Cc1cnn(-c2cccnc2)c1-c1ccccc1)OCC1CC1", "note": "[Example 3-100]", "longitudinal growth (culm length) of summer wheat": "effectively shortened"}
{"smiles": "COC(=O)Cc1c(C)nn(-c2cnccc2C)c1-c1cccc(Cl)c1Cl", "note": "[Example 2-131]", "longitudinal growth (culm length) of summer wheat": "effectively shortened"}
{"smiles": "COC(=O)Cc1c(C)nn(-c2cccnc2)c1-c1ccc(O)nc1", "note": "[Example 2-70]", "longitudinal growth (culm length) of summer wheat": "effectively shortened"}
{"smiles": "Cc1cc(C)cc(-c2c(CC(=O)O)c(C)nn2-c2cnccc2C)c1", "note": "[Example 1-33]", "longitudinal growth (culm length) of summer wheat": "effectively shortened"}
{"smiles": "C#CC(C)OC(=O)Cc1c(C)nn(-c2cccnc2)c1-c1ccccc1", "note": "(stereo not drawn) [Example 3-140]", "longitudinal growth (culm length) of summer wheat": "effectively shortened"}
{"smiles": "Cc1ccncc1-n1nc(C)c(CC(=O)O)c1-c1cccc(Br)c1", "note": "[Example 1-40]", "longitudinal growth (culm length) of summer wheat": "effectively shortened"}
{"smiles": "COC(=O)Cc1c(C)nn(-c2cnccc2C)c1-c1ccc(Cl)cc1", "note": "[Example 2-25]", "longitudinal growth (culm length) of summer wheat": "effectively shortened"}
{"smiles": "COC(=O)Cc1cnn(-c2cnccc2C)c1-c1ccc(Cl)cc1", "note": "[Example 2-133]", "longitudinal growth (culm length) of summer wheat": "effectively shortened"}
{"smiles": "Cc1ccncc1-n1nc(C)c(CC(=O)O)c1-c1ccccn1", "note": "[Example 1-132]", "longitudinal growth (culm length) of summer wheat": "effectively shortened"}
{"smiles": "COC(=O)Cc1cnn(-c2cccnc2)c1-c1ccccc1", "note": "[Example 2-72]", "longitudinal growth (culm length) of summer wheat": "effectively shortened"}
{"smiles": "CCCc1nn(-c2cnccc2C)c(-c2ccc(Cl)cc2)c1CC(=O)OC", "note": "[Example 2-124]", "longitudinal growth (culm length) of summer wheat": "effectively shortened"}
{"smiles": "Cc1nn(-c2cccnc2)c(-c2ccccn2)c1CC(=O)OC(C)C", "note": "[Example 3-48]", "longitudinal growth (culm length) of summer wheat": "effectively shortened"}
{"smiles": "COC(=O)Cc1c(C)nn(-c2cnccc2C)c1-c1ccsc1", "note": "[Example 2-56]", "longitudinal growth (culm length) of summer wheat": "effectively shortened"}
{"smiles": "COCCOC(=O)Cc1c(C)nn(-c2cccnc2)c1-c1ccc(Cl)cc1", "note": "[Example 3-229]", "longitudinal growth (culm length) of summer wheat": "effectively shortened"}
{"smiles": "Cc1ccsc1-c1c(CC(=O)O)c(C)nn1-c1cccnc1", "note": "[Example 1-58]", "longitudinal growth (culm length) of summer wheat": "effectively shortened"}
{"smiles": "C=CCOC(=O)Cc1c(C)nn(-c2cccnc2)c1-c1ccccc1", "note": "[Example 3-148]", "longitudinal growth (culm length) of summer wheat": "effectively shortened"}
{"smiles": "Cc1nn(-c2cccnc2)c(-c2ccccc2Cl)c1CC(=O)O", "note": "[Example 1-31]", "longitudinal growth (culm length) of summer wheat": "effectively shortened"}
{"smiles": "COc1ccc(-c2c(CC(=O)O)c(C)nn2-c2cccnc2)cc1", "note": "[Example 1-14]", "longitudinal growth (culm length) of summer wheat": "effectively shortened"}
{"smiles": "O=C(O)Cc1c(C2CC2)nn(-c2cccnc2)c1-c1ccc(Cl)cc1", "note": "[Example 1-146]", "longitudinal growth (culm length) of summer wheat": "effectively shortened"}
{"smiles": "COC(=O)C(C)c1c(C)nn(-c2cnccc2C)c1-c1ccccc1", "note": "(stereo not drawn) [Example 2-6]", "longitudinal growth (culm length) of summer wheat": "effectively shortened"}
{"smiles": "Cc1ccc(-c2c(CC(=O)O)c(C)nn2-c2cccnc2)nc1", "note": "[Example 1-113]", "longitudinal growth (culm length) of summer wheat": "effectively shortened"}
{"smiles": "CCOC(=O)Cc1c(C)nn(-c2cccnc2)c1-c1ccccn1", "note": "[Example 3-227]", "longitudinal growth (culm length) of summer wheat": "effectively shortened"}
{"smiles": "C#CCOC(=O)Cc1c(C)nn(-c2cccnc2)c1-c1ccc(Cl)cc1", "note": "[Example 3-55]", "longitudinal growth (culm length) of summer wheat": "effectively shortened"}
{"smiles": "COC(=O)Cc1c(C)nn(-c2cccnc2)c1-c1ccc(C)s1", "note": "[Example 2-61]", "longitudinal growth (culm length) of summer wheat": "effectively shortened"}
{"smiles": "Cc1nn(-c2ccc(Cl)nc2)c(-c2ccccc2)c1CC(=O)O", "note": "[Example 1-7]", "longitudinal growth (culm length) of summer wheat": "effectively shortened"}
{"smiles": "COC(=O)Cc1c(C)nn(-c2cnccc2C)c1-c1cccc(Cl)c1", "note": "[Example 2-21]", "longitudinal growth (culm length) of summer wheat": "effectively shortened"}
{"smiles": "COC(=O)Cc1c(C)nn(-c2cnccc2[S+](C)[O-])c1-c1ccc(Cl)cc1", "note": "(stereo not drawn) [Example 2-64]", "longitudinal growth (culm length) of summer wheat": "effectively shortened"}
{"smiles": "Cc1ccncc1-n1nc(C)c(CC(=O)O)c1-c1ccc(C(C)(C)C)cc1", "note": "[Example 1-32]", "longitudinal growth (culm length) of summer wheat": "effectively shortened"}
{"smiles": "COC(=O)Cc1c(C)nn(-c2cnccc2C)c1-c1ccc2c(c1)OCO2", "note": "[Example 2-66]", "longitudinal growth (culm length) of summer wheat": "effectively shortened"}
{"smiles": "Cc1nn(-c2cccnc2)c(-c2ccccc2)c1CC(=O)OCC1CC1(Cl)Cl", "note": "(stereo not drawn) [Example 3-113]", "longitudinal growth (culm length) of summer wheat": "effectively shortened"}
{"smiles": "COC(=O)Cc1c(C(F)F)nn(-c2cccnc2)c1-c1ccccc1", "note": "[Example 2-79]", "longitudinal growth (culm length) of summer wheat": "effectively shortened"}
{"smiles": "COC(=O)Cc1c(C)nn(-c2cnccc2C)c1-c1cc(Cl)cc(Cl)c1", "note": "[Example 2-68]", "longitudinal growth (culm length) of summer wheat": "effectively shortened"}
{"smiles": "C#CCOC(=O)Cc1c(C)nn(-c2cccnc2)c1-c1ccccn1", "note": "[Example 3-73]", "longitudinal growth (culm length) of summer wheat": "effectively shortened"}
{"smiles": "Cc1nn(-c2cnccc2Cl)c(-c2ccc(Cl)cc2)c1CC(=O)O", "note": "[Example 1-29]", "longitudinal growth (culm length) of summer wheat": "effectively shortened"}
{"smiles": "COC(=O)Cc1c(C)nn(-c2cccnc2C)c1-c1ccccc1", "note": "[Example 2-135]", "longitudinal growth (culm length) of summer wheat": "effectively shortened"}
{"smiles": "Cc1cncc(-n2nc(C)c(CC(=O)O)c2-c2ccc(Cl)cc2)c1", "note": "[Example 1-51]", "longitudinal growth (culm length) of summer wheat": "effectively shortened"}
{"smiles": "CC#CCOC(=O)Cc1c(C)nn(-c2cccnc2)c1-c1ccc(Cl)cc1", "note": "[Example 3-118]", "longitudinal growth (culm length) of summer wheat": "effectively shortened"}
{"smiles": "Cc1nn(-c2cccnc2)c(-c2ccccc2)c1CC(=O)OC(C)C1CC1", "note": "(stereo not drawn) [Example 3-144]", "longitudinal growth (culm length) of summer wheat": "effectively shortened"}
{"smiles": "COC(=O)Cc1c(C)nn(-c2cnccc2Cl)c1-c1ccc(Cl)cc1", "note": "[Example 2-29]", "longitudinal growth (culm length) of summer wheat": "effectively shortened"}
{"smiles": "COC(=O)Cc1cnn(-c2cnccc2C)c1-c1ccccc1", "note": "[Example 2-73]", "longitudinal growth (culm length) of summer wheat": "effectively shortened"}
